From patent US10385097B2, “Ether compounds for treatment of medical disorders” (Achillion Pharmaceuticals, Inc., priority 2015, dated 2019) come the findings set out here.

The assay addresses T1, Human Factor D (Homo sapiens, UniProt P00746).
T1 construct: purified from human serum; purchased Complement Technology, Inc; host or cells: human serum (natural protein, not recombinant)
Description: Human Factor D Assay. The following applies: Table 3; Human Factor D 80 nM, substrate Z-L-Lys-SBzl; read-out: (IC50 (Stars)). Format: biochemical. The essentials:
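Serum-purified factor D (80 nM final) preincubated 5 min at room temperature with compound in 50 mM Tris, 1 M NaCl, pH 7.5. Reaction started with 100 μM Z-L-Lys-SBzl plus 100 μM DTNB; A405 read every 30 s for 30 min; IC50 by nonlinear regression of rates.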

Molecules are shown by their SMILES. Some results are limits rather than exact numbers.

T1 sequence (P00746 26-253): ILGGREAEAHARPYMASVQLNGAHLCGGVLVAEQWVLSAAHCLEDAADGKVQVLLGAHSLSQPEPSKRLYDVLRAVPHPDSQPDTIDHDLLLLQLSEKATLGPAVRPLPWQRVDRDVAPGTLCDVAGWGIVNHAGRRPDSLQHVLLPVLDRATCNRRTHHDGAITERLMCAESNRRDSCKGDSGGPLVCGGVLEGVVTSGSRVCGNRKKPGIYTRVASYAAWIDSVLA

As to `CC(=O)c1cn(CC(=O)N2C[C@H](F)C[C@H]2C(=O)Nc2cccc(-c3ccccc3Cl)c2F)c2ccc(OCC[S+]([O-])CC3(C)COC3)cc12` (stereo partly drawn) [Compound 252, (2S,4R)-1-(2-(3-acetyl-5-(2-((3-methyloxetan-3-yl)methylsulfinyl)ethoxy)-1H-indol-1-yl)acetyl)-N-(2′-chloro-2-fluorobiphenyl-3-yl)-4-fluoropyrrolidine-2-carboxamide], the IC50 is less than 1 µM.

`CC(=O)c1cn(CC(=O)N2C[C@H](F)C[C@H]2C(=O)Nc2cccc(-c3ccccc3Cl)c2F)c2ccc(OCCS(=O)(=O)CC3(C)COC3)cc12` [Compound 253, (2S,4R)-1-(2-(3-acetyl-5-(2-((3-methyloxetan-3-yl)methylsulfonyl)ethoxy)-1H-indol-1-yl)acetyl)-N-(2′-chloro-2-fluorobiphenyl-3-yl)-4-fluoropyrrolidine-2-carboxamide]: the IC50 is less than 1 µM.
